Data published in US20040259142A1, “Products and methods” (Imperial College Innovations Limited, priority 2003, published 2004).

What was measured:
[1] = system: anti-SSEA-1 monoclonal antibody; experiment: anti-SSEA-1 binding to lipid-linked oligosaccharide arrays on membranes; parameters: species or system murine; settings: array IDs 1-30 on nitrocellulose, 10 pmol per spot
From the text: (§1) The lipid-linked oligosaccharides (in chloroform:methanol:water, 25:25:8 v/v) were applied by jet spray with a sample applicator (Linomat IV, Camag, Switzerland) as 2 mm bands for ‘miniarray’, or as […] spots for ‘microarray’ format, onto 0.45 μm nitrocellulose or 0.2 μm PVDF membranes (both from Bio-Rad, Hemel Hempstead, UK), or aluminium-backed silica gel plates (Merck). When fluorescent NGLs were applied onto the membranes, and examined directly under UV light, 1-2 pmol was clearly visible above the background on the PVDF, whereas on nitrocellulose, 5 pmol was required due to a high fluorescent background. For detection, therefore, the fluorescent NGLs were printed onto PVDF membranes; the non-fluorescent lipid-linked oligosaccharides were printed onto silica gel plates and detected with primulin stain.
(§2) Experiments were carried out at ambient temperature unless stated otherwise. The dilutions of the antibodies used were those recommended by the manufacturers or providers. Concentrations where known are indicated. For antibody-binding experiments, the membranes were ‘blocked’ for 1 h with 3% (w/v) bovine serum albumin (BSA) in phosphate buffered saline (10 mM phosphate buffer containing 150 mM NaCl) pH 7.4 (PBS), and overlaid with for 2 h with the antibodies diluted in phosphate buffered saline containing 3% BSA (PBS/BSA). […]

[2] = system: anti-L5 monoclonal antibody; experiment: anti-L5 binding to lipid-linked oligosaccharide arrays on nitrocellulose; parameters: species or system rat; settings: array IDs 1-30 on nitrocellulose, 10 pmol per spot
From the text: as §1, §2

[3] = molecular target: T1, recombinant soluble L-selectin IgG chimera (Homo sapiens, UniProt P14151); experiment: L-selectin binding to lipid-linked oligosaccharide array on nitrocellulose; settings: array IDs 1-30 on nitrocellulose, 10 pmol per spot
T1 construct: recombinant soluble L-selectin IgG chimera; made in house; host or cells: transfected Chinese hamster ovary cells (provided by Dr Gray Shaw, Genetics Institute)
T1 sequence (P14151 39-332 limits assumed): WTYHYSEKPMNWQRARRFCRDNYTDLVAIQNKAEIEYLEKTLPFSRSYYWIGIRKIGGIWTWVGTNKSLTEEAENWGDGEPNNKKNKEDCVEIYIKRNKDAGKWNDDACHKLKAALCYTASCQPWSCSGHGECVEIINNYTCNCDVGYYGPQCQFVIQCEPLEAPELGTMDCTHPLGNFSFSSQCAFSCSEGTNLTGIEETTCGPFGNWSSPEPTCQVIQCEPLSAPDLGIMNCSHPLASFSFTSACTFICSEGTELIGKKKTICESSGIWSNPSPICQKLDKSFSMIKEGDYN
From the text: as §1
Selectin-binding experiments were carried out as above except that the membranes were ‘blocked’ 1% (w/v) casein in 10 mM Tris-HCl buffer pH 7.4 containing 50 mM CaCl2 and 150 mM NaCl (TBS/Ca) and overlaid for 2 h with L-selectin (1 μg/ml pre-complexed^42 with biotinylated anti-human IgG from Vector), or E-selectin (at 1 μg/ml) in TBS/Ca. Binding of L-selectin was detected by overlaying with HRP-conjugated streptavidin (Sigma), 10 μg/ml, in TBS/Ca containing 1% casein. Binding of E-selectin was detected by overlaying with biotinylated anti-human IgM (Sigma), 5 μg/ml, followed by the HRP-conjugated streptavidin.

[4] = molecular target: T2, interferon γ (IFN-γ) (Homo sapiens, UniProt P01579); experiment: interferon γ binding to lipid-linked oligosaccharide array on nitrocellulose
T2 construct: purchased Sigma; host or cells: Escherichia coli
T2 sequence (P01579 24-166): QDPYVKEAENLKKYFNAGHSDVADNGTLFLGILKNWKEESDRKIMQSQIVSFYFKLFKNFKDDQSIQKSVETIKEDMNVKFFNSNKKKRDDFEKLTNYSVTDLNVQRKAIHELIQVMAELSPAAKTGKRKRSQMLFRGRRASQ
From the text: as §1
(§3) For cytokine/chemokine-binding experiments, the membranes were blocked for 1 h with 3% (w/v) BSA in 10 mM Tris-HCl buffer containing 150 mM NaCl, 2 mM CaCl2 and 0.8 mM MgCl2 (TNCM), overlaid with INFγ or RANTES at 1 μg per ml diluted in TNCM/BSA, incubated for 16 h at 4° C.
(§4) The membranes were washed four times, for 30 min with 10 mM Tris-HCl buffer containing 20 mM NaCl, 5 mM CaCl2 and 2 mM MgCl2 (TNCM-L) to minimize elution of the bound proteins^31. […] Carbohydrate-binding experiments with NGLs resolved by TLC were performed as described^12.

[5] = molecular target: T3, chemokine RANTES (Homo sapiens, UniProt P13501); experiment: RANTES binding to lipid-linked oligosaccharide array on nitrocellulose; settings: array IDs 1-30 at 10 pmol per spot
T3 construct: purchased R&D systems; host or cells: Escherichia coli
T3 sequence (P13501 24-91): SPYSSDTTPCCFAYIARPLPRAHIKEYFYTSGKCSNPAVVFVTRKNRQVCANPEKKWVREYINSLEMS
From the text: as §1, §3, §4

[6] = molecular target: TSG-6 (Homo sapiens, UniProt P98066); experiment: TSG-6 binding to HA and HA NGL on nitrocellulose-coated FastSlide; settings: 2 mm bands on FastSlide, DAB colour, FIG. 9
TSG-6, sequence (P98066 18-277, species assumed): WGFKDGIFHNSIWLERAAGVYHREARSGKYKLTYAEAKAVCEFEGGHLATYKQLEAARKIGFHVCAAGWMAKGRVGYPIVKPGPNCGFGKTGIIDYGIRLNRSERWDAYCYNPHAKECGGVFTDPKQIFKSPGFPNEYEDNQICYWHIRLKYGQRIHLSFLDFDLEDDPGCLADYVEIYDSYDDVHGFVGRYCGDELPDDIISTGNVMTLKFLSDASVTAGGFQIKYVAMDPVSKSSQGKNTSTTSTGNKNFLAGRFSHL
From the text: NGL samples in organic-based solvent mixture (chloroform/methanol/water 25:25:8, by vol), and also polysaccharides, glycosaminoglycans (GAGs) and glycoproteins in water, were arrayed with N2-assisted jet spray as 1-2 mm bands or 150 μm spots.
Binding to the arrayed samples was detected using biotinylated antibodies directed to the proteins being investigated, followed by conventional ELISA-DAB colour reaction or by using CyS-labelled streptavidin.
Similarly, different amounts of hyaluronic acid polysaccharide (HA) (5 to 500 ng) and its oligosaccharide derived NGL, HA 8mer-DHPE (0.05 to 5 pmol), were applied as 2 mm bands onto a nitrocellulose coated FastSlide. The interactions of TSG-6 (a protein which can bind to the HA) with the carbohydrate-containing molecules on the support material, HA and the HA NGL, are shown in FIG. 9.

[7] = system: monoclonal antibody C-14; experiment: C-14 antibody binding to lipid-linked oligosaccharide array on nitrocellulose; parameters: species or system murine; settings: array IDs 1-30 on nitrocellulose, 10 pmol per spot
From the text: as §1, §2

[8] = system: monoclonal antibody HNK-1 (anti-HNK-1); experiment: anti-HNK-1 binding to lipid-linked oligosaccharide arrays on nitrocellulose; settings: array IDs 1-30 on nitrocellulose, 10 pmol per spot
From the text: as §1, §2

[9] = array IDs 1-30 printed at 1 pmol per spot
[10] = array IDs 1-30 at 10 pmol per spot

lacto-N-fucopentaose III [ID 10]
binding of anti-SSEA-1 [1]: bound
binding of anti-L5 [2]: bound

O=C(O)C1=C[C@H](O)[C@@H](OS(=O)(=O)O)[C@H](O[C@H]2[C@H](O)[C@@H](NS(=O)(=O)O)[C@@H](O)O[C@@H]2COS(=O)(=O)O)O1 [ID 28, HS/HEP 2mer]
L-selectin binding [3]: binding
IFN-γ binding [4, 9]: clear preference

3′,6-SU-Le^x-5 [ID 17]
IFN-γ binding [4, 9]: weak binding

6′-SU-3′-SA-Le^x5 [ID 19]
IFN-γ binding [4, 10]: additional or increased binding signals
RANTES binding [5]: additional or increased binding signals

CC(=O)NC1C(O)CC(OC2C(O)C(CO)OC(OC3C(CO)OC(OC4C(O)C(CO)OC(OC5C(CO)OC(O)C(O)C5O)C4O)C(NC(C)=O)C3OC3OC(C)C(O)C(O)C3O)C2O)(C(=O)O)OC1C(O)C(O)CO (stereo not shown) [ID 14, 3′-SA-Le^x-5]
L-selectin binding [3]: weak

hyaluronic acid [HA polysaccharide]
sensitivity of detection of TSG-6 binding [6]: nanograms

CC(=O)NC1C(OC2C(O)C(CO)OC(OC3C(CO)OC(O)C(O)C3O)C2O)OC(CO)C(OC2OC(CO)C(O)C(O)C2OC2OC(C)C(O)C(O)C2O)C1OC1OC(C)C(O)C(O)C1O (stereo not shown) [ID 12, lacto-N-neo-difucohexaose I]
binding of C-14 antibody [7]: bound

3′-SU-Le^x-5 [ID 16]
IFN-γ binding [4, 9]: weak binding

Man5-phosphate [ID 21]
L-selectin binding [3]: binding

HNK-1 [ID 20]
binding of anti-HNK-1 [8]: bound
L-selectin binding [3]: binding
IFN-γ binding [4, 10]: additional or increased binding signals
RANTES binding [5]: additional or increased binding signals
